Results on 4 compounds are retold here after ChEMBL document CHEMBL1131655 (Bioorg Med Chem Lett, 1998).

The target of assay [1] is T1, Adenosine receptor A1 (Rattus norvegicus, UniProt P25099).
T1 sequence (P25099 whole entry): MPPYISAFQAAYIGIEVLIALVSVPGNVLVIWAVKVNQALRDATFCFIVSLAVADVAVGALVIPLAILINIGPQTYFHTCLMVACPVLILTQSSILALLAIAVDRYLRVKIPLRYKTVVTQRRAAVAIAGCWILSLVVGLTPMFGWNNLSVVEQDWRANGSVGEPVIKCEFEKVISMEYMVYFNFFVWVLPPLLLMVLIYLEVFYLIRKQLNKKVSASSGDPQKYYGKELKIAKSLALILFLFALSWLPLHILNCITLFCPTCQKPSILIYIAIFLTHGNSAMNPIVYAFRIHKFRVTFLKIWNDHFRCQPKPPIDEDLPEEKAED
In words: Binding affinity against adenosine A1 receptor in rat brain using [3H]R-PIA. The class given is tissue-based.

Assay [2] concerns the target T2, Adenosine receptor A1 (Homo sapiens) (UniProt P30542).
T2 sequence (whole entry): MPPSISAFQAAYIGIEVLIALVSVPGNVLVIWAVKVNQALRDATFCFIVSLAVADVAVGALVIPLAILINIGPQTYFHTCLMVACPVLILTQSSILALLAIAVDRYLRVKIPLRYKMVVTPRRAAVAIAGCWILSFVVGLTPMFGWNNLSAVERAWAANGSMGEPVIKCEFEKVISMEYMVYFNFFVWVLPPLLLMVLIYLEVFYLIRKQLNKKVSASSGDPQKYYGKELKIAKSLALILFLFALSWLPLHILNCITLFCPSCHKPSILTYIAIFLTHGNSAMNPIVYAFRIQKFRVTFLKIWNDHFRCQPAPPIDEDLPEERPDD
In words: Percentage extracellular acidification rate was evaluated against human adenosine A1 receptor expressed in CHO-K1 cells. The assay is classed as functional, cell-based.

The target in assay [3] is T2, Adenosine receptor A1 (Homo sapiens). Nature of the assay: Emax for R-PIA against Human Adenosine A1 receptor.
The target in assay [4] is T3, Adenosine receptor A1 (Homo sapiens, UniProt P30542).
T3 sequence (P30542 whole entry): T2 sequence (whole entry)
In words: Binding against Human Adenosine A1 receptor.

On Adenosine receptor A1 [1], `NC1=Nc2c(ncn2C2O[C@@H](CO)[C@H](O)[C@@H]2O)C2=N[C@@H](c3ccccc3)CN12` (stereo partly drawn) had a Ki of 610 nM. The compound also had an ECAR in assay [2] of 117%.
The compound `OC[C@@H]1OC(n2cnc3c2N=CN2C[C@H](c4ccccc4)N=C32)[C@@H](O)[C@H]1O` (stereo partly drawn) yielded an ECAR in assay [2] of 106%.
The compound `NC1=Nc2c(ncn2C2O[C@@H](CO)[C@H](O)[C@@H]2O)C2=N[C@H](c3ccccc3)CN12` (stereo partly drawn) gave an Emax in assay [3] of 90%. On Adenosine receptor A1 [4], this compound gave an EC50 of 100000 nM. The same compound came in with an inhibitory constant (Ki) on Adenosine receptor A1 [1] of 1020 nM. Moreover, the ECAR in assay [2] came out at 122%.
In assay [2], `OC[C@@H]1OC(n2cnc3c2N=CN2C[C@@H](c4ccccc4)N=C32)[C@@H](O)[C@H]1O` (stereo partly drawn) had an ECAR of 113%.

Broadly, the Ki is the dissociation constant of the complex between target and ligand, obtained from inhibition or displacement. High values mean lower affinity, low ones higher affinity. By Emax is commonly meant the greatest response seen or fitted, relative to the assay's reference. The term EC50 denotes the concentration needed to bring the measured effect to its halfway point. Low values mean a more potent agent, high ones a less potent agent.
